{"source": "paper PMC7144554", "about": "“2-(Arylamino)-6-(trifluoromethyl)nicotinic Acid Derivatives: New HIV-1 RT Dual Inhibitors Active on Viral Replication” (Molecules, 2020)", "key": {"[1]": {"biological_target": "T1, HIV-1 RT-associated RNase H activity (wt RT) (Human immunodeficiency virus type 1 group M subtype B, UniProt P04585)", "T1 construct": "RT is a heterodimeric (p66/p51) multifunctional enzyme; made in house; host or cells: Escherichia coli strain M15", "experiment": "HIV-1 DNA polymerase-independent RNase H activity, wt RT", "assay_type": "biochemical", "conditions": "RNase H IC50, wt RT", "procedure": "p6HRT-prot vector was kindly provided by Dr. Stuart Le Grice Laboratory. Heterodimeric RT was expressed essentially as described. Briefly, Escherichia coli strain M15 containing the p6HRT-prot vector were grown up to an OD600 of 0.7 and induced with isopropyl β-D-1-thiogalactopyranoside (IPTG) 1.7 mM for 4 h. Cell pellets were resuspended in Lysis buffer (50 mM sodium phosphate pH 7.8, 0.5 mg/mL lysozyme), incubated on ice for 20 min, added 0.3 M final NaCl, sonicated and centrifuged at 30,000× g for 1 h. The supernatant was loaded into a Ni^2+-sepharose column pre-equilibrated with loading buffer (50 mM sodium phosphate pH 7.8, 0.3 M NaCl, 10% glycerol, 10 mM imidazole) and washed thoroughly with wash buffer (50 mM sodium phosphate pH 6.0, 0.3 M NaCl, 10% glycerol, 80 mM imidazole). RT was gradient-eluted with elute buffer (wash buffer with 0.5 M imidazole). Fractions were collected, protein purity was checked by SDS-PAGE and found to be higher than 90%. RT containing fractions were pooled and diluted 1:1 with dilute buffer (50 mM sodium phosphate pH 7.0, 10% glycerol) then loaded into a Hi-trap Heparine HP GE (Healthcare Lifescience) pre-equilibrated with 10-column volume of loading buffer 2 (50 mM sodium phosphate pH 7.0, 10% glycerol, 150 mM NaCl). Column was then washed with loading buffer 2 and RT was gradient-eluted with elute buffer 2 (50 mM sodium phosphate pH 7.0, 10% glycerol, 150 mM NaCl). Fractions were collected, protein was dialyzed and stored in buffer containing 50 mM Tris HCl pH 7.0, 25 mM NaCl, 1 mM EDTA, 50% glycerol. Catalytic activities and protein concentration were determined. Enzyme-containing fractions were pooled and aliquots were stored at −80 °C.\n(§1) The RT-associated RNase H activity of wt and mutated HIV RTs was measured as described, in 100 µL reaction volume containing 50 mM Tris HCl pH 7.8, 6 mM MgCl2, 1 mM dithiothreitol (DTT), 80 mM KCl, hybrid RNA/DNA (5’-[…]-3’-Fluorescein, 5’-[…]-3’-Dabcyl), and different amounts of enzymes according to a linear range of dose-response curve—20 ng of wt RT; 50 ng K103N RT; 100 ng V108A RT; 4 ng Y181C RT; 100 ng Q475A RT; 100 ng A502F RT. The reaction mixture was incubated for 1 h at 37 °C, the reaction was stopped by addition of EDTA and products were measured with a Victor 3 (Perkin) at 490/528 nm."}, "V108A RT RDDP activity": {"biological_target": "T2, V108A RT RDDP activity (Human immunodeficiency virus type 1 group M subtype B, UniProt P04585, V695A)", "T2 construct": "Amino acid substitutions were introduced into the p66 HIV-1 RT subunit coded in a p6HRT-prot plasmid; made in house; host or cells: Escherichia coli strain M15", "experiment": "biochemical", "design": "species or system HIV-1", "description": "(§4) The HIV-1 RT-associated RDDP activity was measured as described [66]. Briefly, in 25 µL volume containing 60 mM Tris-HCl pH 8.1, 8 mM MgCl2, 60 mM KCl, 13 mM DTT, poly(A)-oligo(dT), 100 µM dTTP, and 6 ng wt RT (or 21 ng K103N RT; 30 ng V108A RT; 1,5 ng Y181C RT; 21 ng Q475A RT; 15 ng A502F RT)."}, "[2]": {"biological_target": "T3, HIV-1 RT-associated RDDP activity (wt RT) (Human immunodeficiency virus type 1 group M subtype B, UniProt P04585)", "T3 construct": "RT is a heterodimeric (p66/p51) multifunctional enzyme; made in house; host or cells: Escherichia coli strain M15", "experiment": "biochemical", "description": "p6HRT-prot vector was kindly provided by Dr. Stuart Le Grice Laboratory. Heterodimeric RT was expressed essentially as described [42]. Briefly, Escherichia coli strain M15 containing the p6HRT-prot vector were grown up to an OD600 of 0.7 and induced with isopropyl β-D-1-thiogalactopyranoside (IPTG) 1.7 mM for 4 h. Cell pellets were resuspended in Lysis buffer (50 mM sodium phosphate pH 7.8, 0.5 mg/mL lysozyme), incubated on ice for 20 min, added 0.3 M final NaCl, sonicated and centrifuged at 30,000× g for 1 h. The supernatant was loaded into a Ni^2+-sepharose column pre-equilibrated with loading buffer (50 mM sodium phosphate pH 7.8, 0.3 M NaCl, 10% glycerol, 10 mM imidazole) and washed thoroughly with wash buffer (50 mM sodium phosphate pH 6.0, 0.3 M NaCl, 10% glycerol, 80 mM imidazole). RT was gradient-eluted with elute buffer (wash buffer with 0.5 M imidazole). Fractions were collected, protein purity was checked by SDS-PAGE and found to be higher than 90%. […] Catalytic activities and protein concentration were determined. […]\nThe HIV-1 RT-associated RDDP activity was measured as described [66]. […]"}, "A502F RT RDDP activity": {"biological_target": "T4, A502F RT RDDP activity (Human immunodeficiency virus type 1 group M subtype B, UniProt P04585, A1089F)", "T4 construct": "Amino acid substitutions were introduced into the p66 HIV-1 RT subunit coded in a p6HRT-prot plasmid; made in house; host or cells: Escherichia coli strain M15", "experiment": "biochemical", "design": "species or system HIV-1", "description": "as §4"}, "[3]": {"biological_target": "T5, K103N RT RNase H function (Human immunodeficiency virus type 1 group M subtype B, UniProt P04585, K690N)", "T5 construct": "Amino acid substitutions were introduced into the p66 HIV-1 RT subunit coded in a p6HRT-prot plasmid; made in house; host or cells: Escherichia coli strain M15", "experiment": "RNase H activity of mutated RT K103N", "assay_type": "biochemical, HIV-1", "procedure": "(§2) Amino acid substitutions were introduced into the p66 HIV-1 RT subunit coded in a p6HRT-prot plasmid using the QuikChange protocol (Agilent Technologies Inc., Santa Clara, CA).\nas §1"}, "[4]": {"biological_target": "T6, Q475A RT RNase H function (Human immunodeficiency virus type 1 group M subtype B, UniProt P04585, Q1062A)", "T6 construct": "Amino acid substitutions were introduced into the p66 HIV-1 RT subunit coded in a p6HRT-prot plasmid; made in house; host or cells: Escherichia coli strain M15", "experiment": "RNase H activity of mutated RT Q475A", "assay_type": "biochemical, HIV-1", "procedure": "as §2, §1"}, "K103N RT RDDP activity": {"biological_target": "T7, K103N RT RDDP activity (Human immunodeficiency virus type 1 group M subtype B, UniProt P04585, K690N)", "T7 construct": "Amino acid substitutions were introduced into the p66 HIV-1 RT subunit coded in a p6HRT-prot plasmid; made in house; host or cells: Escherichia coli strain M15", "experiment": "biochemical", "design": "species or system HIV-1", "description": "as §4"}, "[5]": {"biological_target": "T8, A502F RT RNase H function (Human immunodeficiency virus type 1 group M subtype B, UniProt P04585, A1089F)", "T8 construct": "Amino acid substitutions were introduced into the p66 HIV-1 RT subunit coded in a p6HRT-prot plasmid; made in house; host or cells: Escherichia coli strain M15", "experiment": "RNase H activity of mutated RT A502F", "assay_type": "biochemical, HIV-1", "procedure": "as §2, §1"}, "[6]": {"experiment": "Cell viability in CEM cells (MTT)", "assay_type": "cell-based", "conditions": "human, MTT, 5 days", "procedure": "(§3) Drug-mediated inhibition of virus-induced cytotoxicity was assayed in TZM-BL cells. Triplicate wells of 96-well plates containing 1 × 10^4 TZMbl cells were infected with HIV-1 IIIB strain at a multiplicity of infection of 0.1. Serial dilutions of drugs were added immediately after infection. Luciferase activity was measured as reported. Two days after infection, the culture medium was removed from each well and 100 µl of Bright Glo reagent (Promega, Luis Obispo, CA) was added to the cells for measurement of luminescence using a Victor 2 luminometer (Perkin). The 50% effective concentration (EC50) was defined as the concentration that caused a 50% reduction of luciferase activity (relative light units) compared to virus control wells. Cell viability in CEM cells was quantified 5 days after infection with the MTT-dye reduction method."}, "CEM cells": {"system": "CEM cells", "experiment": "Cell viability in CEM cells (MTT)", "assay_type": "cell-based", "conditions": "highest concentration tested", "procedure": "as §3"}, "Y181C RT RDDP activity": {"biological_target": "T9, Y181C RT RDDP activity (Human immunodeficiency virus type 1 group M subtype B, UniProt P04585, Y768C)", "T9 construct": "Amino acid substitutions were introduced into the p66 HIV-1 RT subunit coded in a p6HRT-prot plasmid; made in house; host or cells: Escherichia coli strain M15", "experiment": "biochemical", "design": "species or system HIV-1", "description": "as §4"}, "HIV-1 IIIB strain": {"system": "HIV-1 IIIB strain", "experiment": "Antiviral assay, HIV-1 replication in TZMbl cells (luciferase)", "assay_type": "cell-based", "conditions": "Human immunodeficiency virus 1, TZM-bl; TZMbl cells, HIV-1 IIIB; read-out: HIV-1 EC50 TZMbl Cells", "description": "Drug-mediated inhibition of virus-induced cytotoxicity was assayed in TZM-BL cells. […] Serial dilutions of drugs were added immediately after infection. Luciferase activity was measured as reported [67]. Two days after infection, the culture medium was removed from each well and 100 µl of Bright Glo reagent (Promega, Luis Obispo, CA) was added to the cells for measurement of luminescence using a Victor 2 luminometer (Perkin). […] Cell viability in CEM cells was quantified 5 days after infection with the MTT-dye reduction method."}, "[7]": {"experiment": "Cytotoxicity in TZMbl cells", "assay_type": "cell-based", "conditions": "human"}, "TZMbl cells": {"system": "TZMbl cells", "experiment": "Cytotoxicity in TZMbl cells", "assay_type": "cell-based", "conditions": "highest concentration tested"}, "Q475A RT RDDP activity": {"biological_target": "T10, Q475A RT RDDP activity (Human immunodeficiency virus type 1 group M subtype B, UniProt P04585, Q1062A)", "T10 construct": "Amino acid substitutions were introduced into the p66 HIV-1 RT subunit coded in a p6HRT-prot plasmid; made in house; host or cells: Escherichia coli strain M15", "experiment": "biochemical", "design": "species or system HIV-1", "description": "as §4"}, "[8]": {"biological_target": "T11, V108A RT RNase H function (Human immunodeficiency virus type 1 group M subtype B, UniProt P04585, V695A)", "T11 construct": "Amino acid substitutions were introduced into the p66 HIV-1 RT subunit coded in a p6HRT-prot plasmid; made in house; host or cells: Escherichia coli strain M15", "experiment": "RNase H activity of mutated RT V108A", "assay_type": "biochemical, HIV-1", "procedure": "as §2, §1"}, "[9]": {"biological_target": "T12, Y181C RT RNase H function (Human immunodeficiency virus type 1 group M subtype B, UniProt P04585, Y768C)", "T12 construct": "Amino acid substitutions were introduced into the p66 HIV-1 RT subunit coded in a p6HRT-prot plasmid; made in house; host or cells: Escherichia coli strain M15", "experiment": "RNase H activity of mutated RT Y181C", "assay_type": "biochemical, HIV-1", "procedure": "as §2, §1"}}, "note": "Several values for one entry are separate records, joined by “and”; a condition that tells them apart may be missing. Equal entries are not always repeated.", "data": [{"smiles": "COc1cc(OC)cc(OC(=O)c2ccc(C(F)(F)F)nc2Nc2cc(Cl)ccc2C)c1", "note": "[Compound 21]", "values": [{"measurement": "IC50", "setting": "[1]", "value": "14 µM and 14.7 µM"}, {"measurement": "IC50", "setting": "V108A RT RDDP activity", "value": "82.8 ± 6.3", "unit": "µM"}, {"measurement": "IC50", "setting": "[2]", "value": "16.1 ± 1.2", "unit": "µM"}, {"measurement": "IC50", "setting": "A502F RT RDDP activity", "value": "8 ± 0.7", "unit": "µM"}, {"measurement": "RDDP Fold", "setting": "A502F RT RDDP activity; A502F RT, IC50 mutated RT / IC50 wt RT", "value": 0.5}, {"measurement": "IC50", "setting": "[3]", "value": "53.9 ± 2.2", "unit": "µM"}, {"measurement": "IC50", "setting": "[4]", "value": "> 100", "unit": "µM"}, {"measurement": "RNase H IC50", "setting": "[4]; Q475A RT", "value": "completely lost its RNase H inhibitory efficacy"}, {"measurement": "RNase H Fold", "setting": "[4]; Q475A RT, vs wt RT", "value": ">6.8"}, {"measurement": "IC50", "setting": "K103N RT RDDP activity", "value": "16.5 ± 4.8", "unit": "µM"}, {"measurement": "IC50", "setting": "[5]", "value": "> 100", "unit": "µM"}, {"measurement": "RNase H IC50", "setting": "[5]; A502F RT", "value": "completely lost its RNase H inhibitory efficacy"}, {"measurement": "RNase H Fold", "setting": "[5]; A502F RT, vs wt RT", "value": ">6.8"}, {"measurement": "CC50 at 5 days", "setting": "[6]", "value": "> 50", "unit": "µM"}, {"measurement": "percentage of cells viability in presence of the highest concentration of inhibitor tested, CEM cells", "setting": "CEM cells", "value": 100, "unit": "%"}, {"measurement": "IC50", "setting": "Y181C RT RDDP activity", "value": "22.5 ± 5.3", "unit": "µM"}, {"measurement": "EC50", "setting": "HIV-1 IIIB strain", "value": "5 ± 0.8", "unit": "µM"}, {"measurement": "CC50", "setting": "[7]", "value": "> 50", "unit": "µM"}, {"measurement": "percentage of cells viability in presence of the highest concentration of inhibitor tested, TZMbl", "setting": "TZMbl cells", "value": 59, "unit": "%"}, {"measurement": "IC50", "setting": "Q475A RT RDDP activity", "value": "17 ± 4.5", "unit": "µM"}, {"measurement": "IC50", "setting": "[8]", "value": "> 100", "unit": "µM"}, {"measurement": "RNase H IC50", "setting": "[8]; V108A RT", "value": "completely lost its RNase H inhibitory efficacy"}, {"measurement": "IC50", "setting": "[9]", "value": "11.9 ± 1.4", "unit": "µM"}]}]}
